pIC50, pKi: −log10 of the molar value. Where two headings read alike, the source gives them in different places. Blank lines part the entries; values can stand above or below the compound they belong to.
Assays:
PDE1A = PDE1A (Homo sapiens, UniProt P54750); test: PDE1A inhibition; assay type: biochemical
PDE1B [1] = biological target: T1, PDE1B (Homo sapiens, UniProt Q01064); test: PDE1B inhibition; assay type: biochemical
PDE1C = PDE1C (Homo sapiens, UniProt Q14123); test: PDE1C inhibition; assay type: biochemical
PDE1C, sequence (Q14123 whole entry, species assumed): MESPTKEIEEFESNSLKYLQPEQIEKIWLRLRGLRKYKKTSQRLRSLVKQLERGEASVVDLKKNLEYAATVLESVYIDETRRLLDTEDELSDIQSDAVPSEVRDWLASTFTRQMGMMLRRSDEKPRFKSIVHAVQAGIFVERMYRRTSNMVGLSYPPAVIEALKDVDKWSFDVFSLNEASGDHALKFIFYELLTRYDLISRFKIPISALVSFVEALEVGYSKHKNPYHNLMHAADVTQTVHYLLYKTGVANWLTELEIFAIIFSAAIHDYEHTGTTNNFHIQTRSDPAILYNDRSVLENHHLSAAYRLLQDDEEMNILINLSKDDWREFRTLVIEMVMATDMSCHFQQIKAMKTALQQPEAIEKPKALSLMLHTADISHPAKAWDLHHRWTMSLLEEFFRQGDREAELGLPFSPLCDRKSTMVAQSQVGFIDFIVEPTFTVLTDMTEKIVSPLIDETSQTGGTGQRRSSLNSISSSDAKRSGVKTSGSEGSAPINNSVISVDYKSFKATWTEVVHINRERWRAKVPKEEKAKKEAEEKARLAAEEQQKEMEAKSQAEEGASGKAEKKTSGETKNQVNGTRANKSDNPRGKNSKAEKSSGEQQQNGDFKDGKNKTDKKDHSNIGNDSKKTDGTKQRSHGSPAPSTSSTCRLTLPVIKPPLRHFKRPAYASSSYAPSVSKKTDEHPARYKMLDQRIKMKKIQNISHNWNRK

PDE10A = PDE10A (Homo sapiens, UniProt Q9Y233); test: Potency toward other PDEs (PDE10A); assay type: biochemical
PDE10A, sequence (Q9Y233 whole entry, species assumed): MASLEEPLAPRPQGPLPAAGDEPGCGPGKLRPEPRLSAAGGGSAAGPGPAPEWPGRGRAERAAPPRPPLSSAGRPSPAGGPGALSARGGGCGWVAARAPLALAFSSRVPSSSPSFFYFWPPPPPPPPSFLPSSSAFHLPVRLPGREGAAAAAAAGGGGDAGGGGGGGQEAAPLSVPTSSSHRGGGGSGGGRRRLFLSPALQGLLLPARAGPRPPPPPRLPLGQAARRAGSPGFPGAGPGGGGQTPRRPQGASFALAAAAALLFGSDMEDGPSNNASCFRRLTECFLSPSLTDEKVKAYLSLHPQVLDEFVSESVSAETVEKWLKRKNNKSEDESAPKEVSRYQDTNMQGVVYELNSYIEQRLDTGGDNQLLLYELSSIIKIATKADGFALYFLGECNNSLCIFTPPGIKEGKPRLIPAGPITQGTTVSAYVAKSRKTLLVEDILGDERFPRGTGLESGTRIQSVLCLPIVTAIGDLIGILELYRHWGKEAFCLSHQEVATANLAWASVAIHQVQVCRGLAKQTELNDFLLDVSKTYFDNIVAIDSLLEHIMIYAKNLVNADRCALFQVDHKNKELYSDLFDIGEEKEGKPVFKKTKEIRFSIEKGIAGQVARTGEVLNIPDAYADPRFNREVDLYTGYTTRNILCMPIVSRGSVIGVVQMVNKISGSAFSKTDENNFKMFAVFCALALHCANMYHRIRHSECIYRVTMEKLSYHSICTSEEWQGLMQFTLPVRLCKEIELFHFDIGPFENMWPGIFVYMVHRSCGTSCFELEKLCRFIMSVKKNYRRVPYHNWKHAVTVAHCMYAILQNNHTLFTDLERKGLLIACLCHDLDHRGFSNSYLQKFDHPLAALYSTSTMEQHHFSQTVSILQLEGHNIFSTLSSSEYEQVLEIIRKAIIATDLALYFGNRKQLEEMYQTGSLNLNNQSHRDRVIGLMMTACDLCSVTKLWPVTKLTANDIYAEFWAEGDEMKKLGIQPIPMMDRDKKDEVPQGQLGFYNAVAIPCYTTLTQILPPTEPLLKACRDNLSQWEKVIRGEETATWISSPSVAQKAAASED

[2] = Log D by shake flask method (n-octanol/PBS); assay type: physicochemical; conditions: measured with [11C]PF-04822163
Procedure: (§1) Furthermore, we investigated the off-target binding of PF-04822163 in vitro against 65 major CNS targets, including ion channels, transporters, and GPCR enzymes (Figure S2 in the Supporting Information, supported by the NIMH Psychoactive Drug Screening Program (PDSP)).
The measurement of log D was performed as previously reported. In brief, [^11C]-PF-04822163, n-octanol (3 mL), and PBS (1×, 3 mL) were added to a centrifuge tube, and vortexing was conducted for 3 min followed by centrifugation (∼14,000 rpm) for 5 min. PBS (around 500 μL) and n-octanol (around 50 μL) were then weighted and measured by a gamma counter.

[3] = test system: 65 major CNS targets, including ion channels, transporters, and GPCR enzymes; test: Off-target binding screen against 65 major CNS targets (NIMH PDSP); conditions: 10 μM testing concentration; except 5-HT2B and 5-HT6
Source text: as §1
(§2) % Inhibition of Target Activity
(§3) Figure S2. Off-target pharmacological evaluation of compound PF-04822163 against major CNS targets, including common GPCRs, enzymes, ion channels, and transporters: initial screening at a concentration of 10 μM (supported by the NIMH PDSP). All data are […]
(§4) Figure S3. The time-activity-curves (0-60 min) of PET studies with [11C]PF-04822163 in rat brains under baseline and blocking conditions. All data were referred to as mean ± SEM,

5-HT2B = biological target: T2, 5-HT2B (Homo sapiens, UniProt P41595); test: Off-target binding, 5-HT2B (NIMH PDSP)
T2 construct: NIMH Psychoactive Drug Screening Program (PDSP)
T2 sequence (P41595 whole entry): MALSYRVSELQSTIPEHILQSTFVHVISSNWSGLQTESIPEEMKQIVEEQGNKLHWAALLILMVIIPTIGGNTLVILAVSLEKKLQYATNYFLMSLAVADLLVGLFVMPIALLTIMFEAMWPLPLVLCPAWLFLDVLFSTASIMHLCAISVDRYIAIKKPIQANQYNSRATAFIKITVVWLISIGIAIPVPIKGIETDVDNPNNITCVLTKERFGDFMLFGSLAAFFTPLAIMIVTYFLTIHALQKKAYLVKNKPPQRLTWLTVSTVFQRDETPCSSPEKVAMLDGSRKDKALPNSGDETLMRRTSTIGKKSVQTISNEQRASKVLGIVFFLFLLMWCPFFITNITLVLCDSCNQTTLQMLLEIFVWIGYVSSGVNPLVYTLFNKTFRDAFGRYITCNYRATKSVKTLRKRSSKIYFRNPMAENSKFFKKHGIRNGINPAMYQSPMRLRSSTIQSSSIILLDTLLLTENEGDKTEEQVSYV
Source text: as §1, §2, §3, §4

5-HT6 = biological target: T3, 5-HT6 (Homo sapiens, UniProt P50406); test: Off-target binding, 5-HT6 (NIMH PDSP)
T3 construct: NIMH Psychoactive Drug Screening Program (PDSP)
T3 sequence (P50406 whole entry): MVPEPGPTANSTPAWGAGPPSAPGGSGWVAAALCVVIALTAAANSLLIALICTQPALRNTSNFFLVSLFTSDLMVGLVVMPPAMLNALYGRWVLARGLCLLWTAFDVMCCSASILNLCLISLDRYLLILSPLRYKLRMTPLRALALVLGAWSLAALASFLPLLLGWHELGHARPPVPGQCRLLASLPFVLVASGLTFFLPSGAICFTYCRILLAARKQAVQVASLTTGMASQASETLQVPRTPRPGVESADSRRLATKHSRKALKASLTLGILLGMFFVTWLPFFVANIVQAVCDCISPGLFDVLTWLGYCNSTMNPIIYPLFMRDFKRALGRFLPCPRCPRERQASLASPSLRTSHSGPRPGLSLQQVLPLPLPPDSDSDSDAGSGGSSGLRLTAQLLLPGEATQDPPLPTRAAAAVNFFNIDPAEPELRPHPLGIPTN
Source text: as §1, §2, §3, §4

PDE1B [4] = test: In vitro autoradiography with [11C]PF-04822163 on rat brain sections, blocking; assay type: binding, Sprague–Dawley (SD) rat; conditions: blocker 10 μM, [11C]PF-04822163 autoradiography
Procedure: With the ligand [^11C]-PF-04822163 in hand, in vitro autoradiography studies were conducted on Sprague–Dawley (SD) rat brain sections to validate its binding specificity toward PDE1. […] In the autoradiography studies on the coronal brain sections, high radioactivity levels were found in the caudate putamen, nucleus accumbens, and olfactory tubercle (Figure a,c).
3 In vitro autoradiography studies of [^11C]-PF-04822163 on rat brain sections. (a) Representative images of autoradiography studies with [^11C]-PF-04822163 under baseline and blocking conditions (PF-04822163 or PF-04827736, 10 μM), (b) quantification of autoradiography studies of [^11C]-PF-04822163 on sagittal rat brain sections, and (c) quantification of autoradiography studies of [^11C]-PF-04822163 on coronal rat brain sections. All data are means ± SD, n ≥ 8. Statistical analysis was conducted with Student’s two-tailed t tests, and asterisks indicated the statistical significance as follows: *p < 0.05, **p ≤ 0.01, and ***p ≤ 0.001.
Autoradiography studies were performed according to previous reports. , In brief, the rat brain sections (20 μm) were preincubated with a Tris–HCl buffer (50 mM) at room temperature for 20 min followed by incubation with [^11C]-PF-04822163 (168 Bq/mL). […] The radioactivity values were normalized as a percentage of the radioactivity relative to the control.

PDE1 [5] = test: Dynamic PET imaging in rat brains; assay type: in vivo, SD rats
Procedure: Encouraged by the results of in vitro evaluation by autoradiography studies with the ligand [^11C]-PF-04822163, dynamic PET imaging studies were conducted with [^11C]-PF-04822163 on SD rats. […] Additionally, an evident washout was observed after initial high uptakes in all brain regions. To assess the in vivo binding specificity of [^11C]-PF-04822163 to PDE1, we carried out blocking studies with the pretreatment of unlabeled PF-04822163 (1 mg/kg, 10 min before the administration of [^11C]-PF-04822163). […] These findings indicate that further optimization of the pharmacological and ADME properties is warranted to obtain a suitable probe for in vivo imaging of PDE1.
4 PET studies of [^11C]-PF-04822163 in rat brains. […]
PET imaging was conducted as previously reported. , An Inveon PET scanner (Siemens) was used for dynamic PET imaging studies, [^11C]-PF-04822163 (ca. 17.5 MBq/1.5 mL) was intravenously injected via the tail vein via a preinstalled catheter, and dynamic PET images were acquired in a 3D mode for a period of 60 min. […] The dynamic PET images were reconstructed using ASIPro VW software, and volumes of interest were calculated.

PDE1B [6] = biological target: T1, PDE1B; conditions: introduction, literature value; ref Humphrey et al., 2014; cited from earlier work
[7] = Whole-body biodistribution study in mice; assay type: in vivo, ddY mice
Procedure: To investigate the distribution of [^11C]-PF-04822163 in the whole body, we conducted a biodistribution study in ddY mice (Figure ). The radioactivity levels in major organs were assessed at 1, 5, 15, 30, and 60 min after the administration of [^11C]-PF-04822163. […] After the initial uptake, radioactivity accumulations decreased in almost all organs, while the uptake in the small intestine increased, and liver uptake remained at a high level (5% ID/g at 60 min), indicating a hepatobiliary elimination route.
The biodistribution experiment was performed according to previous reports. , In brief, [^11C]-PF-04822163 (4.44 MBq/0.1 mL) was injected (i.v.) into ddY mice via the tail vein. After the administration of [^11C]-PF-04822163, the mice were sacrificed at different time points (1, 5, 15, 30, and 60 min), and tissues of interest were collected. The tissues were weighted and measured by a gamma counter.

[8] = Radiometabolic analysis in rat brain and plasma; assay type: in vivo, SD rats; conditions: 15 min postadministration
Procedure: To gain insight into the in vivo stability of [^11C]-PF-04822163, we performed radiometabolic analysis in the brain and plasma of SD rats (Figure ). At 15 min postadministration of [^11C]-PF-04822163, 95% of [^11C]-PF-04822163 remained unchanged in the brain, while in plasma, 26% remained unchanged.
The radiometabolic analysis was performed following a previous report. After the intravenous injection of [^11C]-PF-04822163, SD rats were sacrificed at 15 min postinjection. Plasma samples were quenched with acetonitrile and centrifuged, and the supernatant was assessed by radio-HPLC. The brain was collected and homogenized and quenched with acetonitrile, and the resulting homogenate was centrifuged. The supernatant was analyzed by radio-HPLC.

PDE1 [9] = conditions: cited from earlier work; for pIC50: introduction, literature value

T1 sequence (Q01064 whole entry, species assumed): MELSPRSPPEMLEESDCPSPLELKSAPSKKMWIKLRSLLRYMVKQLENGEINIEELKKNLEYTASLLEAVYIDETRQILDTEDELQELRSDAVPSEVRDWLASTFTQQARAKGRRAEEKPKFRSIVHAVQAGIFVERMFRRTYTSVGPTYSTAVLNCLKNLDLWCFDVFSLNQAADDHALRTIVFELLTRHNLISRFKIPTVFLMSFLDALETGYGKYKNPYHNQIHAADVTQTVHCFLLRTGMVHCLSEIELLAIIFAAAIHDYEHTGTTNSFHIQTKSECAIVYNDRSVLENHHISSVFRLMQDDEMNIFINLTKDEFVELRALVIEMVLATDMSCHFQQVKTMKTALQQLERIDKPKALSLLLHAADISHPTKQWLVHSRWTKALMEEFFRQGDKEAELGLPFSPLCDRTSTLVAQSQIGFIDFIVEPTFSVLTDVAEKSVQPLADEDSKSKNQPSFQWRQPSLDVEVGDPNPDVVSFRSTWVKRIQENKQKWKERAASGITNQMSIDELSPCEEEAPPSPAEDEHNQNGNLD
PDE1A, sequence (P54750 whole entry, species assumed): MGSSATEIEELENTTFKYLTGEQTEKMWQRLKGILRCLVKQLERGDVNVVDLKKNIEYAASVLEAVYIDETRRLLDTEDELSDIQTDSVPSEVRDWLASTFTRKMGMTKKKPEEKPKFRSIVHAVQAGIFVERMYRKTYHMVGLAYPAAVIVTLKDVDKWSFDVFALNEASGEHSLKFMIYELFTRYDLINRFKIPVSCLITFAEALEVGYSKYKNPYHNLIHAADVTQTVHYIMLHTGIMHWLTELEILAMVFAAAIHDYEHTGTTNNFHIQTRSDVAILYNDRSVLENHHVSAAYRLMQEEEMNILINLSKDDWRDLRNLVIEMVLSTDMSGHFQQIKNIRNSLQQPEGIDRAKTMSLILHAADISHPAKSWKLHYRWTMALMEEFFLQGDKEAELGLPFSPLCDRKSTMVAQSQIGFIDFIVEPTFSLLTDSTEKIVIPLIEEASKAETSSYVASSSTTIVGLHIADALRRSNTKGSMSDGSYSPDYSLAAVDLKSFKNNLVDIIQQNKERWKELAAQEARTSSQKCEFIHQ

- pIC50 (PDE1A): 8.70
- selectivity over other PDEs for PDE1A (PDE1A): 126 fold
- pIC50 (PDE1B [1]): 8.62
- selectivity over other PDEs for PDE1B (PDE1B [1]): 105 fold
- pIC50 (PDE1C): 8.15
- selectivity over other PDEs for PDE1C (PDE1C): 36 fold
- pIC50 (PDE10A): 6.60
- logD [2]: 2.53
- off-target binding (>50% inhibition) [3]: no significant off-target binding
- pKi (5-HT2B): 6.58
- pKi (5-HT6): 5.31
- melting point: 122 to 124 °C
SMILES: COc1ccc2c([C@H]3CCc4ccc(Cl)cc43)ncnc2c1OC [PF-04822163, (S)-4-(6-Chloro-2,3-dihydro-1H-inden-1-yl)-7,8-dimethoxyquinazoline]
- decrease in radioactivity signal in PDE1B-rich regions (PDE1B [4]): 47–71%
- reduction in uptake (AUC) in different brain regions (PDE1 [5]; pretreatment with unlabeled blocker 1 mg/kg, 10 min before [11C]PF-04822163, AUC 0–20 min): 7–12%
- selectivity over other PDEs (PDE1B [6]): > 100 fold

- SUVmax (PDE1 [5]; striatum, 3 min post-tracer administration, baseline): 2.0
- uptake ([7]; at 1 and 5 min, heart, lung, liver, kidney, adrenal, and brain): ≥ 3 % ID/g
- liver uptake ([7]; at 60 min): 5 % ID/g
- remained unchanged in the brain ([8]; rat brain): 95%
- remained unchanged in plasma ([8]; rat plasma): 26%
SMILES: COc1c(O[11CH3])ccc2c([C@H]3CCc4ccc(Cl)cc43)ncnc12 [[^11C]PF-04822163]

SMILES: CN1C(=O)c2c(nn(Cc3ccc(-c4cccc(F)n4)cc3)c2Nc2ccccc2)N2C1=N[C@@H]1CCC[C@@H]12 [ITI-214]
- selectivity over other PDEs (PDE1 [9]; PDE1 over other PDEs, ref Li et al., 2016): > 1000 fold
- pIC50 (PDE1 [9]; ref Li et al., 2016): 10.24

SMILES: CCOC(=O)C1=C[C@]2(CC)CCCN3CCc4c(n1c1ccccc41)[C@@H]32 [Vinpocetine]
- pIC50 (PDE1 [9]): 4.52

Source: paper PMC11541501, “Development of a Candidate ^11C‑Labeled Selective Phosphodiesterase 1 Radioligand for Positron Emission Tomography” (ACS Omega, 2024)
